In the NIST ThermoML archive (doi:10.1021/je100042c):

Conditions: 101.33 kPa, Liquid; for viscosity: Concentric cylinders viscometry; for mass density: Vibrating tube method

CCCCC/C=C\C/C=C\CCCCCCCC(=O)OC [methyl (Z,Z)-9,12-octadecadienate]
Conditions	mass density [kg/m3]	viscosity [mPa·s]
278.15 K	897.2	7.466
283.15 K	893.5	6.466
288.15 K	889.9	5.655
293.15 K	886.2	4.982
298.15 K	882.5	4.428
303.15 K	878.8	3.961
308.15 K	875.2	3.567
313.15 K	871.5	3.227
318.15 K	867.9	2.936
323.15 K	864.3	2.682
328.15 K	860.7	2.461
333.15 K	857	2.266
338.15 K	853.4	2.093
343.15 K	849.8	1.94
348.15 K	846.1	1.804
353.15 K	842.5	1.682
358.15 K	838.7	–
363.15 K	835.1	–

CCCCCCCC/C=C\CCCCCCCC(=O)OC [methyl cis-9-octadecenoate]
Conditions	mass density [kg/m3]	viscosity [mPa·s]
283.15 K	881.4	8.699
288.15 K	877.7	7.452
293.15 K	874.1	6.45
298.15 K	870.4	5.634
303.15 K	866.8	4.961
308.15 K	863.1	4.401
313.15 K	859.5	3.93
318.15 K	855.9	3.531
323.15 K	852.3	3.189
328.15 K	848.7	2.894
333.15 K	845.1	2.638
338.15 K	841.5	2.416
343.15 K	837.9	2.222
348.15 K	834.3	2.05
353.15 K	830.7	1.897

CCCCCCCCCC(=O)OC [methyl decanoate]
Conditions	mass density [kg/m3]	viscosity [mPa·s]
278.15 K	884.7	2.989
283.15 K	880.6	2.654
288.15 K	876.4	2.373
293.15 K	872.3	2.136
298.15 K	868.2	1.933
303.15 K	864.1	1.76
308.15 K	860	1.609
313.15 K	856	1.477
318.15 K	851.9	1.361
323.15 K	847.8	1.259
328.15 K	843.6	1.167
333.15 K	839.5	1.086
338.15 K	835.3	1.013
343.15 K	831.2	0.9477
348.15 K	827	0.8886
353.15 K	822.9	0.8342
358.15 K	818.7	0.786
363.15 K	814.5	0.7421

CCCCCCCCCCCC(=O)OC [methyl dodecanoate]
Conditions	mass density [kg/m3]	viscosity [mPa·s]
283.15 K	877.7	4.068
288.15 K	873.7	3.577
293.15 K	869.8	3.167
298.15 K	865.8	2.824
303.15 K	861.8	2.536
308.15 K	857.9	2.289
313.15 K	853.9	2.078
318.15 K	850	1.894
323.15 K	846.1	1.735
328.15 K	842.1	1.595
333.15 K	838.1	1.471
338.15 K	834.2	1.362
343.15 K	830.2	1.265
348.15 K	826.2	1.178
353.15 K	822.3	1.1

CCCCCCCCCCCCCCCC(=O)OC [methyl hexadecanoate]
Conditions	mass density [kg/m3]	viscosity [mPa·s]
308.15 K	854.5	4.212
313.15 K	850.8	3.755
318.15 K	847	3.368
323.15 K	843.3	3.038
328.15 K	839.6	2.754
333.15 K	835.8	2.508
338.15 K	832.1	2.295
343.15 K	828.4	2.107
348.15 K	824.7	1.942
353.15 K	821	1.796
358.15 K	817.3	1.666
363.15 K	813.6	1.55
